{"source": "the METLIN SMRT retention time set (Domingo-Almenara et al. 2019)", "assay": "gradient 5% acetonitrile 3 min, to 50% in 2 min, to 85% in 15 min, held 3 min, 100 µL/min", "settings": "column: Zorbax Extend-C18 2.1 x 50 mm; eluents: water / acetonitrile, 0.1% formic acid", "method_in_brief": "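Retention times of pure standards were taken from adduct peaks that were selected by computer and manually inspected. Over 3 months, mixtures of ~100 molecules were run by HPLC–quadrupole time-of-flight mass spectrometry in positive and negative ionization mode. The Zorbax Extend-C18 column (2.1 × 50 mm, 1.8 μm) ran at 100 μL/min in water and acetonitrile, each containing 0.1% formic acid, with 40 μL dead volume and 900 μL dwell volume.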", "data": [{"compound": "COC(=O)c1ccc2c(=O)n(-c3cccc(C)c3)c(N3CCCCC3)nc2c1", "values": [{"measurement": "RP-LC retention time", "result": 1240, "unit": "s"}]}, {"compound": "COc1ccc(-c2cn3cccnc3n2)cc1NS(=O)(=O)c1ccc(C)cc1", "values": [{"measurement": "RP-LC retention time", "result": 690, "unit": "s"}]}, {"compound": "C=C(C)CN1CCN(c2cc(C)nc3c(C)c(-c4ccc(Cl)cc4)nn23)CC1", "values": [{"measurement": "RP-LC retention time", "result": 693, "unit": "s"}]}, {"compound": "O=C(NCc1cccc2ccccc12)NCc1nnnn1-c1ccccc1", "values": [{"measurement": "RP-LC retention time", "result": 751, "unit": "s"}]}, {"compound": "Cn1nc(-c2nnc(-c3ccccc3F)o2)c2c1CCN(S(=O)(=O)c1ccc3c(c1)CCCC3)C2", "values": [{"measurement": "RP-LC retention time", "result": 1090, "unit": "s"}]}, {"compound": "CCC(CC)NC(=O)C1CCN(c2nc3ccc(-c4cncnc4)nc3s2)CC1", "values": [{"measurement": "RP-LC retention time", "result": 810, "unit": "s"}]}, {"compound": "CC1CCCN(c2ccc(NC(=O)Cc3cccs3)c(C(=O)O)c2)C1", "note": "(stereo unspecified)", "values": [{"measurement": "RP-LC retention time", "result": 685, "unit": "s"}]}, {"compound": "Cc1cc(-c2ccc(S(=O)(=O)N3CCC(C(=O)NCC4CC4)CC3)o2)n[nH]1", "values": [{"measurement": "RP-LC retention time", "result": 702, "unit": "s"}]}, {"compound": "CCCNC(=O)Cc1cn(CC)c2ncccc12", "values": [{"measurement": "RP-LC retention time", "result": 611, "unit": "s"}]}, {"compound": "O=C1COc2c(CCNCCN(C(=O)CCNCCc3ccc(Cl)c(Cl)c3)C3CCCCC3)ccc(O)c2N1", "values": [{"measurement": "RP-LC retention time", "result": 691, "unit": "s"}]}, {"compound": "CN1c2cc(F)ccc2C(=O)NC12CCN(C(=O)NCc1ccc(F)cc1)CC2", "values": [{"measurement": "RP-LC retention time", "result": 754, "unit": "s"}]}, {"compound": "Cc1ccc(Nc2nc3ccncc3n(Cc3ccccc3)c2=O)cc1Cl", "values": [{"measurement": "RP-LC retention time", "result": 898, "unit": "s"}]}, {"compound": "Cc1cc(C2CCCN2C(=O)Nc2ccccc2C(F)(F)F)on1", "note": "(stereo unspecified)", "values": [{"measurement": "RP-LC retention time", "result": 812, "unit": "s"}]}, {"compound": "O=C(Nc1nnc(Cc2ccccc2)s1)C1CCN(C(=O)c2ccccc2)CC1", "values": [{"measurement": "RP-LC retention time", "result": 767, "unit": "s"}]}, {"compound": "Cc1cc(Cl)ccc1S(=O)(=O)N(C)C1CCc2nn(CC3CC3)c(=O)n2CC1", "note": "(stereo unspecified)", "values": [{"measurement": "RP-LC retention time", "result": 772, "unit": "s"}]}, {"compound": "CC(=O)c1cccc(NC(=O)C(C)Oc2ccc(=O)n(-c3ccc(F)cc3)n2)c1", "note": "(stereo unspecified)", "values": [{"measurement": "RP-LC retention time", "result": 688, "unit": "s"}]}, {"compound": "CCCC(C)C(=O)NC1CCN(C2=NS(=O)(=O)C(c3ccc(C)c(C)c3)=C2C)CC1", "note": "(stereo unspecified)", "values": [{"measurement": "RP-LC retention time", "result": 927, "unit": "s"}]}, {"compound": "CC(C(=O)N1CCN(c2ccccn2)CC1)C1CCN(C(=O)c2cc3cc(Cl)ccc3[nH]2)CC1", "note": "(stereo unspecified)", "values": [{"measurement": "RP-LC retention time", "result": 675, "unit": "s"}]}, {"compound": "CCOc1ccccc1NC(=O)c1ccc(=O)n(Cc2ccccc2)n1", "values": [{"measurement": "RP-LC retention time", "result": 980, "unit": "s"}]}, {"compound": "CCOc1cc(-c2cccc(Cl)c2)nc2ccc(NC(=O)c3ccco3)cc12", "values": [{"measurement": "RP-LC retention time", "result": 830, "unit": "s"}]}, {"compound": "Cc1ccc(C)c(N2CCN(C(=O)C3CCN(S(=O)(=O)c4cn(C)c(C)n4)CC3)CC2)c1", "values": [{"measurement": "RP-LC retention time", "result": 822, "unit": "s"}]}, {"compound": "COc1ccccc1CNS(=O)(=O)c1cc(-c2cc(C(F)(F)F)on2)sc1C", "values": [{"measurement": "RP-LC retention time", "result": 1120, "unit": "s"}]}, {"compound": "c1ccc(-c2nc(-c3ccncc3)no2)c(OC2CCNC2)c1", "note": "(stereo unspecified)", "values": [{"measurement": "RP-LC retention time", "result": 604, "unit": "s"}]}, {"compound": "Cc1cc(C)c(CN2CCC3(CC2)CC3c2noc(C)n2)c(C)c1", "note": "(stereo unspecified)", "values": [{"measurement": "RP-LC retention time", "result": 655, "unit": "s"}]}, {"compound": "c1ccc(-c2nc(CC3CCNC3)no2)cc1", "note": "(stereo unspecified)", "values": [{"measurement": "RP-LC retention time", "result": 608, "unit": "s"}]}, {"compound": "COc1ccc(-c2c(C)noc2NC(C)=O)cc1S(=O)(=O)N1CCC(C)CC1", "values": [{"measurement": "RP-LC retention time", "result": 801, "unit": "s"}]}, {"compound": "O=C(CCC1CCCC1)Nc1c2c(nn1-c1cccc(Cl)c1)CS(=O)C2", "note": "(stereo unspecified)", "values": [{"measurement": "RP-LC retention time", "result": 746, "unit": "s"}]}, {"compound": "Cc1cc(C)cc(NC(=O)C2CCN(S(C)(=O)=O)c3ccccc3O2)c1", "note": "(stereo unspecified)", "values": [{"measurement": "RP-LC retention time", "result": 976, "unit": "s"}]}, {"compound": "CCc1nc2cc(-c3noc(-c4nccc5ccccc45)n3)ccc2o1", "values": [{"measurement": "RP-LC retention time", "result": 1130, "unit": "s"}]}, {"compound": "COC(=O)c1[nH]c(C)c(CN(C(=O)C2CCCCC2)C2CCCC2)c1C", "values": [{"measurement": "RP-LC retention time", "result": 1060, "unit": "s"}]}, {"compound": "Cc1ccn2c(NC(=O)c3ccc4ccccc4c3)c(-c3ccccc3)nc2c1", "values": [{"measurement": "RP-LC retention time", "result": 747, "unit": "s"}]}, {"compound": "CC(C)C(=O)Nc1nc2cc(NC(=O)C3CCN(S(=O)(=O)N4CCCC4)CC3)ccc2s1", "values": [{"measurement": "RP-LC retention time", "result": 805, "unit": "s"}]}, {"compound": "CCOC(=O)Cn1c2ccccc2n2nc(C)c(=O)nc12", "values": [{"measurement": "RP-LC retention time", "result": 699, "unit": "s"}]}, {"compound": "CCC1CCCCN1C(=O)c1cnc2nc(C)ccc2c1Nc1cc(C)ccc1C", "note": "(stereo unspecified)", "values": [{"measurement": "RP-LC retention time", "result": 737, "unit": "s"}]}, {"compound": "Cn1cc(OCc2ccccc2)c(=O)cc1C(=O)N1CCN(c2ccccn2)CC1", "values": [{"measurement": "RP-LC retention time", "result": 538, "unit": "s"}]}, {"compound": "Cc1[nH]c2ccc(-c3nnc(SC(C)C(=O)Nc4ccc5c(c4)OCCO5)o3)cc2c1C", "note": "(stereo unspecified)", "values": [{"measurement": "RP-LC retention time", "result": 936, "unit": "s"}]}, {"compound": "Cc1nn(C)c(C)c1S(=O)(=O)N1CCC(Cc2nncn2-c2ccccc2)CC1", "values": [{"measurement": "RP-LC retention time", "result": 671, "unit": "s"}]}, {"compound": "CC(C)Cc1nnc(NC(=O)C2CCN(C(=O)c3ccccc3)CC2)s1", "values": [{"measurement": "RP-LC retention time", "result": 750, "unit": "s"}]}, {"compound": "CCNC(=O)C1CCCN(c2nc3ncn(CC(=O)NCc4ccccc4Cl)c(=O)c3s2)C1", "note": "(stereo unspecified)", "values": [{"measurement": "RP-LC retention time", "result": 670, "unit": "s"}]}, {"compound": "Cc1cc(C)cc(Nc2nc(C)cc3nn(CC(=O)NCc4ccccc4)c(=O)n23)c1", "values": [{"measurement": "RP-LC retention time", "result": 1080, "unit": "s"}]}, {"compound": "CCn1cc(-c2ccc(Cl)cc2)cc1C(=O)NCCCN1CCOCC1", "values": [{"measurement": "RP-LC retention time", "result": 709, "unit": "s"}]}, {"compound": "Cc1cc(N(C)C)nc(N2CCN(C(=O)c3ccc(Br)cc3)CC2)n1", "values": [{"measurement": "RP-LC retention time", "result": 658, "unit": "s"}]}, {"compound": "CC1=C(c2ccccc2)S(=O)(=O)N=C1N1CCCN(C(=O)Nc2ccccc2F)CC1", "values": [{"measurement": "RP-LC retention time", "result": 811, "unit": "s"}]}, {"compound": "Cc1cc2c(=O)n(CC(=O)Nc3ccc(F)c(C)c3)c3cccnc3n2n1", "values": [{"measurement": "RP-LC retention time", "result": 748, "unit": "s"}]}, {"compound": "CCNC(=O)N1CCCCCC1CN1CCCC1", "note": "(stereo unspecified)", "values": [{"measurement": "RP-LC retention time", "result": 564, "unit": "s"}]}, {"compound": "CCOC(=O)c1c(C)[nH]c(C(=O)N2CCC(C(C)C(=O)N3CCN(c4ccccc4)CC3)CC2)c1C", "note": "(stereo unspecified)", "values": [{"measurement": "RP-LC retention time", "result": 871, "unit": "s"}]}, {"compound": "O=C1CC(C(=O)N2CCCC2)CN1CCc1c[nH]c2ccc(Cl)cc12", "note": "(stereo unspecified)", "values": [{"measurement": "RP-LC retention time", "result": 731, "unit": "s"}]}, {"compound": "CCCNC(=O)Nc1ccc(C)cc1C", "values": [{"measurement": "RP-LC retention time", "result": 827, "unit": "s"}]}, {"compound": "CCc1nc(N)n(CC(=O)NCc2ccc3c(c2)OCO3)c(=O)c1C", "values": [{"measurement": "RP-LC retention time", "result": 556, "unit": "s"}]}, {"compound": "Cc1cc(=O)n(CC(=O)Nc2cccc(F)c2)c(N2CCCC2)n1", "values": [{"measurement": "RP-LC retention time", "result": 634, "unit": "s"}]}, {"compound": "Cc1noc(C)c1S(=O)(=O)N1CCC[C@H](n2c(=O)n(C)c3cccnc32)C1", "values": [{"measurement": "RP-LC retention time", "result": 816, "unit": "s"}]}, {"compound": "Cc1cc(Cl)ccc1NS(=O)(=O)c1cc(-c2[nH]ncc2C(=O)N2CCCC2)oc1C", "values": [{"measurement": "RP-LC retention time", "result": 772, "unit": "s"}]}, {"compound": "COc1ccc(S(=O)(=O)N2CCN(c3ccccn3)CC2)cc1OC", "values": [{"measurement": "RP-LC retention time", "result": 588, "unit": "s"}]}, {"compound": "CCOCCn1c(=O)c2c(nc3n2CCCCN3c2ccc(OCC)cc2)n(C)c1=O", "values": [{"measurement": "RP-LC retention time", "result": 906, "unit": "s"}]}, {"compound": "Cc1nc(-c2noc(-c3cccc(F)c3)n2)cn1CC(=O)Nc1cccc(Cl)c1", "values": [{"measurement": "RP-LC retention time", "result": 957, "unit": "s"}]}, {"compound": "Cc1cc(C)nc(Nc2nc(C(=O)NCCOc3ccc(F)cc3)cs2)n1", "values": [{"measurement": "RP-LC retention time", "result": 842, "unit": "s"}]}, {"compound": "COc1cc2c(cc1OC)CN(S(=O)(=O)CCCNC(=O)CC1CCCCC1)CC2", "values": [{"measurement": "RP-LC retention time", "result": 767, "unit": "s"}]}, {"compound": "CCCn1c2ccccc2c2nnc(SC(CC)C(=O)Nc3nc(-c4ccccc4)cs3)nc21", "note": "(stereo unspecified)", "values": [{"measurement": "RP-LC retention time", "result": 1230, "unit": "s"}]}, {"compound": "O=C(NCc1ccccc1)C1CCN(S(=O)(=O)c2cc(-c3noc(C4CCC4)n3)cs2)CC1", "values": [{"measurement": "RP-LC retention time", "result": 1020, "unit": "s"}]}, {"compound": "CCn1c(=O)c2ccccc2n(Cc2nc(-c3cccc(Br)c3)no2)c1=O", "values": [{"measurement": "RP-LC retention time", "result": 1120, "unit": "s"}]}, {"compound": "CCOc1ccc(S(=O)(=O)N2CCCC(C(=O)NCc3cccnc3)C2)cc1C", "note": "(stereo unspecified)", "values": [{"measurement": "RP-LC retention time", "result": 685, "unit": "s"}]}, {"compound": "COc1ccc(NC(=O)N(C)CCc2noc(COc3ccc(F)cc3)n2)c(OC)c1", "values": [{"measurement": "RP-LC retention time", "result": 837, "unit": "s"}]}, {"compound": "CCCn1cc(C(=O)N2CCN(C3CCCCC3)CC2)c2cccnc21", "values": [{"measurement": "RP-LC retention time", "result": 603, "unit": "s"}]}, {"compound": "Cc1nc2cc(NC(=O)COc3ccccc3)ccc2s1", "values": [{"measurement": "RP-LC retention time", "result": 771, "unit": "s"}]}, {"compound": "O=C(CCn1nnc2cc(-c3noc(-c4ccccc4Br)n3)ccc21)N1CCOCC1", "values": [{"measurement": "RP-LC retention time", "result": 896, "unit": "s"}]}, {"compound": "CCN1CCCC(OC(=O)C(c2ccccc2)c2ccccc2)C1", "note": "(stereo unspecified)", "values": [{"measurement": "RP-LC retention time", "result": 802, "unit": "s"}]}]}
